Positions of bridges follow the written chain, without caps; N, C: chain ends. Non-standard residues stand in square brackets, D forms with d. Residues, ends and D or L forms follow the SMILES beside them. 1Nal = N[C@@H](Cc1cccc2ccccc12)C(=O)O
Key:
Experiment in all cases: cell-based
[1] = biological target: hNav1.7 (Homo sapiens, UniProt Q15858); assay type: cell-based; conditions: IonWorks Quattro, use-dependent block, hNav1.7; read-out: IWQ Use Nav1.7
[2] = biological target: hNav1.5 (Homo sapiens, UniProt Q14524); conditions: IonWorks Quattro, use-dependent block, hNav1.5; read-out: IWQ Use Nav1.5
[3] = biological target: hNav1.3 (Homo sapiens, UniProt Q9NY46); conditions: IonWorks Quattro, use-dependent block, hNav1.3; read-out: IWQ Use Nav1.3
hNav1.3, sequence (Q9NY46 whole entry, looked up): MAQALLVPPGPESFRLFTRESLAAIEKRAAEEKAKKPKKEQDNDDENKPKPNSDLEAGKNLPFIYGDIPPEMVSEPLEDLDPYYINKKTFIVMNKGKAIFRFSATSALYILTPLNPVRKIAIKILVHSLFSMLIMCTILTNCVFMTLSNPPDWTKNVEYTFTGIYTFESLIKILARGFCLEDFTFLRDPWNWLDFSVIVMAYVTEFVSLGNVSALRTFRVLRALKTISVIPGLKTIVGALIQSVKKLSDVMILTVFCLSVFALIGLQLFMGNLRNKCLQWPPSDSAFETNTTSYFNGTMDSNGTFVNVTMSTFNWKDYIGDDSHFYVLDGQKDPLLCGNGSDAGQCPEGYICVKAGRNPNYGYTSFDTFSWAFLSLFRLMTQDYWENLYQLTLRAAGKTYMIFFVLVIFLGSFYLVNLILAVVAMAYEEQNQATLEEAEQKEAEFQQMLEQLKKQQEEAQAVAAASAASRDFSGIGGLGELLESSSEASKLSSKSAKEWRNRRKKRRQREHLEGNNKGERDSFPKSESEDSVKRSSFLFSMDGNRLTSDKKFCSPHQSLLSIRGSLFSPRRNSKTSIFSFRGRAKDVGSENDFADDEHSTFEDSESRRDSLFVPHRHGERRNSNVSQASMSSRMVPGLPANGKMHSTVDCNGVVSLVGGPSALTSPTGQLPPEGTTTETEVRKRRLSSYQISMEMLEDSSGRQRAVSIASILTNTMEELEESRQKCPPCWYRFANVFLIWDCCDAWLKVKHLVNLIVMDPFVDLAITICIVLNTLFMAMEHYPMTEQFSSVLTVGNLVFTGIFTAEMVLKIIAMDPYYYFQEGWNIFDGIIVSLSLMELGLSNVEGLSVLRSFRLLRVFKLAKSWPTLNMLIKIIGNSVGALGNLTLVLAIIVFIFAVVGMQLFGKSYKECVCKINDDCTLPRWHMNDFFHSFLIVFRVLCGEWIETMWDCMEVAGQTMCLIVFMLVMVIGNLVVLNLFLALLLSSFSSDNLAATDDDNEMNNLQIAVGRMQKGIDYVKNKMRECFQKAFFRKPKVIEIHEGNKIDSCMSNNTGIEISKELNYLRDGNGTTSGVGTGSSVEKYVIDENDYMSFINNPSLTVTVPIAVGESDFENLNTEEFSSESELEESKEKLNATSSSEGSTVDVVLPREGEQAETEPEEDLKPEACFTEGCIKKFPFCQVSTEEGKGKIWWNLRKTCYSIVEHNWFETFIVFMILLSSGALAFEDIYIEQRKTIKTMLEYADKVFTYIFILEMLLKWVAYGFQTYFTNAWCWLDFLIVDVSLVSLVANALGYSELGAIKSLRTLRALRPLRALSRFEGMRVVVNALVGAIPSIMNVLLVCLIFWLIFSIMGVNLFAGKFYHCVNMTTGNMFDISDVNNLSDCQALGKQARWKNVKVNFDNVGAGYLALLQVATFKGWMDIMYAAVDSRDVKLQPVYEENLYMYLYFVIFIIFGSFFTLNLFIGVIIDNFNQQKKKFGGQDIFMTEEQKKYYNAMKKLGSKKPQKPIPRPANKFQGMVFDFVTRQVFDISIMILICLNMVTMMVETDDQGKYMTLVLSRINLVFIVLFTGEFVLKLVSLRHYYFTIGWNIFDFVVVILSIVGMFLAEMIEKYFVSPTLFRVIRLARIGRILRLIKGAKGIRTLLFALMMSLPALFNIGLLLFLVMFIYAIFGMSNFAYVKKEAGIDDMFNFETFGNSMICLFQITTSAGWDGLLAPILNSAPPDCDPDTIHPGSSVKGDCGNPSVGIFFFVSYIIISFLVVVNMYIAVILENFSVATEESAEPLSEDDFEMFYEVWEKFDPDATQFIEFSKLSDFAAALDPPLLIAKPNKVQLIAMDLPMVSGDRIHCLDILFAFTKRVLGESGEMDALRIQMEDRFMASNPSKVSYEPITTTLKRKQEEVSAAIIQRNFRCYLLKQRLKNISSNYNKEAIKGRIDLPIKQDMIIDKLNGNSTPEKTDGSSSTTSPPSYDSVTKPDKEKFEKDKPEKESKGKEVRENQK

hNav1.7, sequence (Q15858 whole entry, looked up): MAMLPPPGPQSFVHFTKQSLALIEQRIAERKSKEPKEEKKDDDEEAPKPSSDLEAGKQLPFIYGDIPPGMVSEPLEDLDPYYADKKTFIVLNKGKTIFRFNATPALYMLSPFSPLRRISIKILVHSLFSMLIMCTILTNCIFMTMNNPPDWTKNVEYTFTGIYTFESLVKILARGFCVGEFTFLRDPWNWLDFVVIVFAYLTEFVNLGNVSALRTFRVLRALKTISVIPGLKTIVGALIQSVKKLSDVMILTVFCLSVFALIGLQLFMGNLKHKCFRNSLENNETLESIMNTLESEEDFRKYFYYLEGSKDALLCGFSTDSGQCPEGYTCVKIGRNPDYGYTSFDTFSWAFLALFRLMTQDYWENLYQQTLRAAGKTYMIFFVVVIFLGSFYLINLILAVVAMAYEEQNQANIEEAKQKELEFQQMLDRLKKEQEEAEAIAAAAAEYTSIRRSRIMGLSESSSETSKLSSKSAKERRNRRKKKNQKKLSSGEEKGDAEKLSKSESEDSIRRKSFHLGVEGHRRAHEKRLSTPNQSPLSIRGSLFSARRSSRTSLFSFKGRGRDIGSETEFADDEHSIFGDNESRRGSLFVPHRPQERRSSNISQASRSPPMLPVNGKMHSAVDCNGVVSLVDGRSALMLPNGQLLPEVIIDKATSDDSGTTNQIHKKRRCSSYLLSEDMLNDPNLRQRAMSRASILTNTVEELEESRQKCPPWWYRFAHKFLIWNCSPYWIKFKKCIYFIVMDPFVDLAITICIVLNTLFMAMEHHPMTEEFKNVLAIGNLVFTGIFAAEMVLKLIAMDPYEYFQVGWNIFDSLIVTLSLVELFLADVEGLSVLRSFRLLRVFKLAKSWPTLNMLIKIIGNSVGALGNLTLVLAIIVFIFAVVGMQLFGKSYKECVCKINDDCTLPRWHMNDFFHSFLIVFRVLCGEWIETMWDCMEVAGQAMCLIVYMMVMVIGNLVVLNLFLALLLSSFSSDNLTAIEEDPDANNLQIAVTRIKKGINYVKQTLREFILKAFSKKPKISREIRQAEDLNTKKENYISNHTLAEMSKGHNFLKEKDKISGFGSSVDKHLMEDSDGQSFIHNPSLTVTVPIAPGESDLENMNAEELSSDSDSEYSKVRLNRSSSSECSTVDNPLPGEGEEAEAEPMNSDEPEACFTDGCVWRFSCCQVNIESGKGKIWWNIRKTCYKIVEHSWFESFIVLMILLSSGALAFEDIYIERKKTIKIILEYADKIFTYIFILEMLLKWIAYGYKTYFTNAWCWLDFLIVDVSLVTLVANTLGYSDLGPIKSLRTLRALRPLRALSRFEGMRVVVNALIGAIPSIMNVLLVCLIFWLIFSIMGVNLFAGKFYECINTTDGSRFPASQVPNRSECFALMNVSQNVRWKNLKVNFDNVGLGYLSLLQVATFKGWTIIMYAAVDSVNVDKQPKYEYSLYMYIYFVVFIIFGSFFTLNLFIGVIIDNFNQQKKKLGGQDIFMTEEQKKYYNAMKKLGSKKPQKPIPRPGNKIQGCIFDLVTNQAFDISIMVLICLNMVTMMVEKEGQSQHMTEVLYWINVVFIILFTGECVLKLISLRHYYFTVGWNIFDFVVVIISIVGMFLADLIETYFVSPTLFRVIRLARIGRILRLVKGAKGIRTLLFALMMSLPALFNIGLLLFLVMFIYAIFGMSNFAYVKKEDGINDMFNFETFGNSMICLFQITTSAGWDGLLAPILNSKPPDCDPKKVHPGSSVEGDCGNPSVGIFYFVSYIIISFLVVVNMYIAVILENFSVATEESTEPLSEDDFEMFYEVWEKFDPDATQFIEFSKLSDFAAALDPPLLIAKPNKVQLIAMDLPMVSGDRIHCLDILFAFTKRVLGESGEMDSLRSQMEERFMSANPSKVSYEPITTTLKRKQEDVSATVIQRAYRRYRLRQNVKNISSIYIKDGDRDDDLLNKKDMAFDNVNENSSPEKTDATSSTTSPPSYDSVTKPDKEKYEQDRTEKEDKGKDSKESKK

SMILES	IC50 [1]	IC50 [2]	IC50 [3]
CC[C@H](C)[C@@H]1NC(=O)[C@@H]2CSSC[C@@H]3NC(=O)[C@H](C(C)C)NC(=O)[C@H](CC(C)C)NC(=O)[C@H](CC(N)=O)NC(=O)[C@@H]4CCCN4C(=O)[C@H](CCCNC(=N)N)NC(=O)[C@H](CSSC[C@H](NC(=O)[C@@H](N)CC(=O)O)C(=O)N[C@@H](CC(C)C)C(=O)NCC(=O)N[C@@H](C)C(=O)N[C@@H](CCSC)C(=O)N[C@@H](CCCNC(=N)N)C(=O)N[C@@H](CCCCN)C(=O)N2)NC(=O)[C@H](CSSC[C@@H](C(=O)N[C@@H](CCCCN)C(=O)N[C@@H](Cc2ccc(O)cc2)C(=O)N[C@H](C(=O)N[C@@H](Cc2ccccc2)C(N)=O)C(C)C)NC(=O)[C@H](Cc2c[nH]c4ccccc24)NC(=O)[C@H](CCCCN)NC(=O)[C@H](Cc2c[nH]cn2)NC(=O)[C@H]([C@@H](C)O)NC(=O)[C@H](CCC(=O)O)NC(=O)[C@H](CO)NC3=O)NC(=O)[C@H](CCCCN)NC(=O)[C@H](CC(=O)O)NC(=O)[C@H](CC(N)=O)NC(=O)[C@H](CC(=O)O)NC(=O)[C@@H]2CCCN2C1=O [compound 438]	5500 nM	18200 nM	5950 nM
CC[C@H](C)[C@@H]1NC(=O)[C@@H]2CSSC[C@@H]3NC(=O)[C@H](C(C)C)NC(=O)[C@H](CC(C)C)NC(=O)[C@H](CC(N)=O)NC(=O)[C@@H]4CCCN4C(=O)[C@H](CCCNC(=N)N)NC(=O)[C@H](CSSC[C@H](NC(=O)[C@@H](N)CC(=O)O)C(=O)N[C@@H](CC(C)C)C(=O)NCC(=O)N[C@@H](C)C(=O)N[C@@H](CCSC)C(=O)N[C@@H](CCCNC(=N)N)C(=O)N[C@@H](CCCCN)C(=O)N2)NC(=O)[C@H](CSSC[C@@H](C(=O)N[C@@H](CCCCN)C(=O)N[C@@H](Cc2ccc(O)cc2)C(=O)N[C@H](C(=O)N[C@@H](Cc2ccccc2)C(N)=O)C(C)C)NC(=O)[C@H](Cc2c[nH]c4ccccc24)NC(=O)[C@H](CCCCN)NC(=O)[C@H](Cc2c[nH]cn2)NC(=O)[C@H]([C@@H](C)O)NC(=O)[C@H](CCCNC(=N)N)NC(=O)[C@H](CO)NC3=O)NC(=O)[C@H](CCC(=O)O)NC(=O)[C@H](CC(=O)O)NC(=O)[C@H](CC(N)=O)NC(=O)[C@H](CC(=O)O)NC(=O)[C@@H]2CCCN2C1=O [compound 439] (H-DCLGAMRKCIPDNDECCRPNLVCSRTHKWCKYVF-NH2; disulfide 2-17, 9-23, 16-30)	2410 nM	10800 nM	4800 nM
CC[C@H](C)[C@@H]1NC(=O)[C@@H]2CSSC[C@@H]3NC(=O)[C@H](C(C)C)NC(=O)[C@H](CC(C)C)NC(=O)[C@H](CC(N)=O)NC(=O)[C@@H]4CCCN4C(=O)[C@H](CCCNC(=N)N)NC(=O)[C@H](CSSC[C@H](NC(=O)[C@@H](N)CC(=O)O)C(=O)N[C@@H](CC(C)C)C(=O)NCC(=O)N[C@@H](Cc4ccccc4)C(=O)N[C@@H](CCSC)C(=O)N[C@@H](CCCNC(=N)N)C(=O)N[C@@H](CCCCN)C(=O)N2)NC(=O)[C@H](CSSC[C@@H](C(=O)N[C@@H](CCCCN)C(=O)N[C@@H](Cc2ccc(O)cc2)C(=O)N[C@@H](Cc2cccc4ccccc24)C(=O)N[C@@H](Cc2ccccc2)C(N)=O)NC(=O)[C@H](Cc2c[nH]c4ccccc24)NC(=O)[C@H](CCCNC(=N)N)NC(=O)[C@H](Cc2c[nH]cn2)NC(=O)[C@H]([C@@H](C)O)NC(=O)[C@H](CCCNC(=N)N)NC(=O)[C@H](CO)NC3=O)NC(=O)[C@H](CCCCN)NC(=O)[C@H](CC(=O)O)NC(=O)[C@H](CC(N)=O)NC(=O)[C@H](CC(=O)O)NC(=O)[C@@H]2CCCN2C1=O [compound 442] (H-DCLGFMRKCIPDNDKCCRPNLVCSRTHRWCKY[1Nal]F-NH2; disulfide 2-17, 9-23, 16-30)	30 nM	> 5000 nM	40 nM
CC[C@H](C)[C@@H]1NC(=O)[C@@H]2CSSC[C@@H]3NC(=O)[C@H](C(C)C)NC(=O)[C@H](CC(C)C)NC(=O)[C@H](CC(N)=O)NC(=O)[C@@H]4CCCN4C(=O)[C@H](CCCNC(=N)N)NC(=O)[C@H](CSSC[C@H](NC(=O)[C@@H](N)CC(=O)O)C(=O)N[C@@H](CC(C)C)C(=O)NCC(=O)N[C@@H](Cc4ccccc4)C(=O)N[C@@H](CCSC)C(=O)N[C@@H](CCCNC(=N)N)C(=O)N[C@@H](CCCCN)C(=O)N2)NC(=O)[C@H](CSSC[C@@H](C(=O)N[C@@H](CCCCN)C(=O)N[C@@H](Cc2c[nH]c4ccccc24)C(=O)N[C@H](C(=O)N[C@@H](Cc2ccccc2)C(N)=O)C(C)C)NC(=O)[C@H](Cc2c[nH]c4ccccc24)NC(=O)[C@H](CCCNC(=N)N)NC(=O)[C@H](Cc2c[nH]cn2)NC(=O)[C@H]([C@@H](C)O)NC(=O)[C@H](CCCNC(=N)N)NC(=O)[C@H](CO)NC3=O)NC(=O)[C@H](CCCCN)NC(=O)[C@H](CC(=O)O)NC(=O)[C@H](CC(N)=O)NC(=O)[C@H](CC(=O)O)NC(=O)[C@@H]2CCCN2C1=O [compound 443] (H-DCLGFMRKCIPDNDKCCRPNLVCSRTHRWCKWVF-NH2; disulfide 2-17, 9-23, 16-30)	70 nM	4920 nM	70 nM
CC[C@H](C)[C@@H]1NC(=O)[C@@H]2CSSC[C@@H]3NC(=O)[C@H](C(C)C)NC(=O)[C@H](CC(C)C)NC(=O)[C@H](CC(N)=O)NC(=O)[C@@H]4CCCN4C(=O)[C@H](CCCNC(=N)N)NC(=O)[C@H](CSSC[C@H](NC(=O)[C@@H](N)CC(=O)O)C(=O)N[C@@H](CC(C)C)C(=O)NCC(=O)N[C@@H](Cc4ccccc4)C(=O)N[C@@H](CCSC)C(=O)N[C@@H](CCCNC(=N)N)C(=O)N[C@@H](CCCCN)C(=O)N2)NC(=O)[C@H](CSSC[C@@H](C(=O)N[C@@H](CCCCN)C(=O)N[C@@H](Cc2ccc(O)cc2)C(=O)N[C@@H](Cc2c[nH]c4ccccc24)C(=O)N[C@@H](Cc2ccccc2)C(N)=O)NC(=O)[C@H](Cc2c[nH]c4ccccc24)NC(=O)[C@H](CCCNC(=N)N)NC(=O)[C@H](Cc2c[nH]cn2)NC(=O)[C@H]([C@@H](C)O)NC(=O)[C@H](CCCNC(=N)N)NC(=O)[C@H](CO)NC3=O)NC(=O)[C@H](CCCCN)NC(=O)[C@H](CC(=O)O)NC(=O)[C@H](CC(N)=O)NC(=O)[C@H](CC(=O)O)NC(=O)[C@@H]2CCCN2C1=O [compound 444] (H-DCLGFMRKCIPDNDKCCRPNLVCSRTHRWCKYWF-NH2; disulfide 2-17, 9-23, 16-30)	30 nM	> 5000 nM	40 nM
CC[C@H](C)[C@@H]1NC(=O)[C@@H]2CSSC[C@@H]3NC(=O)[C@H](C(C)C)NC(=O)[C@H](CC(C)C)NC(=O)[C@H](CC(N)=O)NC(=O)[C@@H]4CCCN4C(=O)[C@H](CCCNC(=N)N)NC(=O)[C@H](CSSC[C@H](NC(=O)[C@@H](N)CC(=O)O)C(=O)N[C@@H](CC(C)C)C(=O)NCC(=O)N[C@@H](Cc4ccccc4)C(=O)N[C@@H](CCSC)C(=O)N[C@@H](CCCNC(=N)N)C(=O)N[C@@H](CCCCN)C(=O)N2)NC(=O)[C@H](CSSC[C@@H](C(=O)N[C@@H](CCCCN)C(=O)N[C@@H](Cc2ccc(O)cc2)C(=O)N[C@H](C(=O)N[C@@H](Cc2ccccc2)C(N)=O)C(C)C)NC(=O)[C@H](Cc2c[nH]c4ccccc24)NC(=O)[C@H](CCCNC(=N)N)NC(=O)[C@H](Cc2c[nH]cn2)NC(=O)[C@H](CC(C)C)NC(=O)[C@H](CCCNC(=N)N)NC(=O)[C@H](CO)NC3=O)NC(=O)[C@H](CCCCN)NC(=O)[C@H](CC(=O)O)NC(=O)[C@H](CC(N)=O)NC(=O)[C@H](CC(=O)O)NC(=O)[C@@H]2CCCN2C1=O [compound 445] (H-DCLGFMRKCIPDNDKCCRPNLVCSRLHRWCKYVF-NH2; disulfide 2-17, 9-23, 16-30)	30 nM	> 5000 nM	60 nM
CC[C@H](C)[C@@H]1NC(=O)[C@@H]2CSSC[C@@H]3NC(=O)[C@H](C(C)C)NC(=O)[C@H](CC(C)C)NC(=O)[C@H](CC(N)=O)NC(=O)[C@@H]4CCCN4C(=O)[C@H](CCCNC(=N)N)NC(=O)[C@H](CSSC[C@H](NC(=O)[C@@H](N)CC(=O)O)C(=O)N[C@@H](CC(C)C)C(=O)NCC(=O)N[C@@H](Cc4ccccc4)C(=O)N[C@@H](CCSC)C(=O)N[C@@H](CCCNC(=N)N)C(=O)N[C@@H](CCCCN)C(=O)N2)NC(=O)[C@H](CSSC[C@@H](C(=O)N[C@@H](CCCCN)C(=O)N[C@@H](Cc2c[nH]c4ccccc24)C(=O)N[C@H](C(=O)N[C@@H](Cc2ccccc2)C(N)=O)C(C)C)NC(=O)[C@H](Cc2c[nH]c4ccccc24)NC(=O)[C@H](CCCCN)NC(=O)[C@H](Cc2c[nH]cn2)NC(=O)[C@H](CC(C)C)NC(=O)[C@H](CCCNC(=N)N)NC(=O)[C@H](CO)NC3=O)NC(=O)[C@H](CCCCN)NC(=O)[C@H](CC(=O)O)NC(=O)[C@H](CC(N)=O)NC(=O)[C@H](CC(=O)O)NC(=O)[C@@H]2CCCN2C1=O [compound 446] (H-DCLGFMRKCIPDNDKCCRPNLVCSRLHKWCKWVF-NH2; disulfide 2-17, 9-23, 16-30)	40 nM	> 5000 nM	60 nM
CC[C@H](C)[C@@H]1NC(=O)[C@@H]2CSSC[C@@H]3NC(=O)[C@H](C(C)C)NC(=O)[C@H](CC(C)C)NC(=O)[C@H](CC(N)=O)NC(=O)[C@@H]4CCCN4C(=O)[C@H](CCCNC(=N)N)NC(=O)[C@H](CSSC[C@H](NC(=O)[C@@H](N)CC(=O)O)C(=O)N[C@@H](CC(C)C)C(=O)NCC(=O)N[C@@H](Cc4ccccc4)C(=O)N[C@@H](CCSC)C(=O)N[C@@H](CCCNC(=N)N)C(=O)N[C@@H](CCCCN)C(=O)N2)NC(=O)[C@H](CSSC[C@@H](C(=O)N[C@@H](CCCCN)C(=O)N[C@@H](Cc2ccc(O)cc2)C(=O)N[C@@H](Cc2c[nH]c4ccccc24)C(=O)N[C@@H](Cc2ccccc2)C(N)=O)NC(=O)[C@H](Cc2c[nH]c4ccccc24)NC(=O)[C@H](CCCCN)NC(=O)[C@H](Cc2c[nH]cn2)NC(=O)[C@H](CC(C)C)NC(=O)[C@H](CCCNC(=N)N)NC(=O)[C@H](CO)NC3=O)NC(=O)[C@H](CCCCN)NC(=O)[C@H](CC(=O)O)NC(=O)[C@H](CC(N)=O)NC(=O)[C@H](CC(=O)O)NC(=O)[C@@H]2CCCN2C1=O [compound 447] (H-DCLGFMRKCIPDNDKCCRPNLVCSRLHKWCKYWF-NH2; disulfide 2-17, 9-23, 16-30)	30 nM	> 5000 nM	20 nM

From patent publication US9340590B2 (priority 2011, dated 2016)
